Test results from paper PMC10891067, “A co-assembly platform engaging macrophage scavenger receptor A for lysosome-targeting protein degradation” (Nature Communications, 2024).
Values belong to the compound of their own block, whether it stands above or below them. Residues, ends and D or L forms follow the SMILES beside them. *: point of attachment. Fmoc = O=C(OCC1c2ccccc2-c2ccccc21)*; Ahx = NCCCCCC(=O)O

What was measured:
[1] = Serum clearance kinetics of 17A-Lytaca relevant peptides; type: in vivo, mouse; settings: healthy mice, i.p. Cy-labeled 17A-Lytaca (Cy5-fm-17Abp 15 mg/kg, Cy3-fm-SRAL 22 mg/kg), IVIS, n = 3
Experimental: Serum samples were collected at 0, 1, 2, 3, 4, 8, 12, and 24 h for analysis. The fluorescence intensity of serum was measured with the in vivo imaging system (IVIS) spectrum.

[2] = In vivo localization and clearance assay of 17A-Lytaca (IVIS); parameters: species or system mouse; settings: psoriasis mice, i.p. Cy-labeled 17A-Lytaca (Cy5-fm-17Abp 5 mg/kg, Cy7-fm-SRAL 7.3 mg/kg)
Experimental: Fluorescence imaging in both the Cy5 and Cy7 channels was conducted using the in vivo imaging system (IVIS Spectrum) at 4, 8, 12, 24, and 48 h post-injection. Further, for biodistribution assessment, mice were sacrificed at 6 h post-injection, and skins along with major organs (heart, liver, spleen, lung, and kidney) were removed for ex vivo fluorescence imaging.

[3] = biological target: T1, IL-17A (Mus musculus, UniProt Q62386); test: IL-17A binding competition experiment with IL-17RA (IL-17A uptake); type: cell-based; parameters: host or cells: added exogenously to RAW264.7, SR-A-KO RAW264.7, U-118 MG, DC 2.4 or HaCaT cells; settings: RAW264.7, with fi-SRAL and fi-17Abp mixture and IL-17A
T1 sequence (Q62386 26-158): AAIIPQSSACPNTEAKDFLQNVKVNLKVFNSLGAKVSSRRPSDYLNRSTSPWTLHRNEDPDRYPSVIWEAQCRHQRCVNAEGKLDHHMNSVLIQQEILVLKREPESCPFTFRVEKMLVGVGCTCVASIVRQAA
Experimental: To verify the binding of the IL-17A by mixed fi-17Abp and fi-SRAL, RAW264.7 cells were treated with 0.5 μg/ml IL-17A, 50 μM mixed fi-SRAL and fi-17Abp and IL-17RA at 0, 0.0125, 0.025, 0.05, 0.1, or 0.2 μg/ml for 6 h. Then, flow cytometry analysis was used to measure the intracellular IL-17A level according to the procedure mentioned above.

[4] = biological target: T1, IL-17A; test: Lysosome inhibition assay (LPT, BafA1); type: cell-based; parameters: host or cells: added exogenously to RAW264.7, SR-A-KO RAW264.7, U-118 MG, DC 2.4 or HaCaT cells; settings: RAW264.7, 0.5 μg/ml IL-17A + 50 μM 17A-Lytaca, 6 h
Experimental: To confirm the involvement of lysosomes, RAW264.7 cells were pretreated with PBS, LPT (0.1 mg/ml), or BafA1 (100 nM) for 2 h at 37 °C. […] The accumulation of IL-17A in the cells was then measured via flow cytometry, following the aforementioned procedure.

Compound: C[C@H](NC(=O)[C@H](CCC(=O)O)NC(=O)[C@H](C)NC(=O)[C@H](CCC(=O)O)NC(=O)[C@H](C)NC(=O)[C@H](CCC(=O)O)NC(=O)[C@H](C)NC(=O)[C@H](CCC(=O)O)NC(=O)[C@H](C)NC(=O)[C@H](CCC(=O)O)NC(=O)[C@H](C)NC(=O)[C@H](CCC(=O)O)NC(=O)[C@H](C)NC(=O)[C@H](CCC(=O)O)NC(=O)[C@H](C)NC(=O)[C@H](CCC(=O)O)NC(=O)[C@H](C)NC(=O)[C@H](CCC(=O)O)NC(=O)[C@H](C)NC(=O)[C@H](CCC(=O)O)NC(=O)[C@H](C)NC(=O)[C@H](CCC(=O)O)NC(=O)[C@H](C)NC(=O)[C@H](CCC(=O)O)NC(=O)[C@H](C)NC(=O)[C@H](CCC(=O)O)NC(=O)[C@H](C)NC(=O)[C@H](CCC(=O)O)NC(=O)[C@H](C)NC(=O)[C@H](CCC(=O)O)NC(=O)CCCCCNC(=O)OCC1c2ccccc2-c2ccccc21)C(N)=O [fm-SRAL] ({Fmoc-Ahx}-EAEAEAEAEAEAEAEAEAEAEAEAEAEAEA-NH2)
- Time up to which the serum fluorescent signal was detectable [1]: ≤ 8 h
- Time up to which the peptide remained detectable in vivo [2]: 48 h

- Effect on intracellular IL-17A signal (in words) [3]: concentration-dependent attenuation
Compound: IL-17RA: IL-17A receptor protein used as competitor for the 17Abp binding domain of IL-17A

Compound: CO/C1=C\C(C)=C\[C@@H](C)[C@@H](O)[C@@H](C)C/C(C)=C/C=C/[C@H](OC)[C@@H]([C@@H](C)[C@@H](O)[C@H](C)[C@@]2(O)C[C@@H](O)[C@H](C)[C@@H](C(C)C)O2)OC1=O [BafA1, Bafilomycin A1]
- IL-17A accumulation in cells with lysosome inhibitor (in words) [4]: significantly higher IL-17A accumulation in cells
